Molecular target: T1, human Nav1.7 (hNav1.7) (Homo sapiens, UniProt Q15858)
T1 construct: expressed in transfected cells
Experiment: hNav1.7 whole-cell patch-clamp electrophysiology (automated PatchXpress 7000A or manual) in stably expressing 293 cells
Assay type: cell-based
Method: Compounds were tested on human Nav1.7 (hNav1.7) expressed stably in 293 cells, which have no endogenous sodium channels. Two forms of whole-cell patch-clamp assays were used. In both, peak current through Nav1.7 was evoked by a depolarizing voltage pulse, and currents were monitored as a function of time in response to exposure to several different concentrations of drug. Automated electrophysiology uses the PatchXpress 7000A system. Up to sixteen cells at a time were voltage-clamped in parallel, and the steady-state voltage dependence of inactivation was determined experimentally for each cell. For each cell, fractional inactivation was set at 20%, and peak current through Nav1.7 as a function of time was measured in response to increasing concentrations of test compound. Manual electrophysiology refers to conventional whole-cell patch-clamping (Hamill et al., 1981). After formation of the whole-cell clamp, cells were lifted off the bottom of the dish with the patch pipette and positioned directly in front of an array of glass microperfusion tubes each with internal diameter about 250 microns, with individual compound concentrations flowing from each tube. Current as a function of time in response to increasing drug concentrations was measured with Nav1.7 fully in the resting state (holding voltage set to −140 mV) and on the same cells with the holding voltage set to produce about 20% inactivation. Compounds were not applied for a prespecified time, but for as long as required to achieve a stable level of block. For both forms of electrophysiology, offline analysis was used to correct for rundown of channel current and to determine percent inhibition as a function of drug concentration. IC50 were determined by fitting to the Hill equation.

[1] = human Nav1.7 stably expressed in 293 cells, whole-cell patch clamp, average IC50 from Hill fit

T1 sequence (Q15858 whole entry): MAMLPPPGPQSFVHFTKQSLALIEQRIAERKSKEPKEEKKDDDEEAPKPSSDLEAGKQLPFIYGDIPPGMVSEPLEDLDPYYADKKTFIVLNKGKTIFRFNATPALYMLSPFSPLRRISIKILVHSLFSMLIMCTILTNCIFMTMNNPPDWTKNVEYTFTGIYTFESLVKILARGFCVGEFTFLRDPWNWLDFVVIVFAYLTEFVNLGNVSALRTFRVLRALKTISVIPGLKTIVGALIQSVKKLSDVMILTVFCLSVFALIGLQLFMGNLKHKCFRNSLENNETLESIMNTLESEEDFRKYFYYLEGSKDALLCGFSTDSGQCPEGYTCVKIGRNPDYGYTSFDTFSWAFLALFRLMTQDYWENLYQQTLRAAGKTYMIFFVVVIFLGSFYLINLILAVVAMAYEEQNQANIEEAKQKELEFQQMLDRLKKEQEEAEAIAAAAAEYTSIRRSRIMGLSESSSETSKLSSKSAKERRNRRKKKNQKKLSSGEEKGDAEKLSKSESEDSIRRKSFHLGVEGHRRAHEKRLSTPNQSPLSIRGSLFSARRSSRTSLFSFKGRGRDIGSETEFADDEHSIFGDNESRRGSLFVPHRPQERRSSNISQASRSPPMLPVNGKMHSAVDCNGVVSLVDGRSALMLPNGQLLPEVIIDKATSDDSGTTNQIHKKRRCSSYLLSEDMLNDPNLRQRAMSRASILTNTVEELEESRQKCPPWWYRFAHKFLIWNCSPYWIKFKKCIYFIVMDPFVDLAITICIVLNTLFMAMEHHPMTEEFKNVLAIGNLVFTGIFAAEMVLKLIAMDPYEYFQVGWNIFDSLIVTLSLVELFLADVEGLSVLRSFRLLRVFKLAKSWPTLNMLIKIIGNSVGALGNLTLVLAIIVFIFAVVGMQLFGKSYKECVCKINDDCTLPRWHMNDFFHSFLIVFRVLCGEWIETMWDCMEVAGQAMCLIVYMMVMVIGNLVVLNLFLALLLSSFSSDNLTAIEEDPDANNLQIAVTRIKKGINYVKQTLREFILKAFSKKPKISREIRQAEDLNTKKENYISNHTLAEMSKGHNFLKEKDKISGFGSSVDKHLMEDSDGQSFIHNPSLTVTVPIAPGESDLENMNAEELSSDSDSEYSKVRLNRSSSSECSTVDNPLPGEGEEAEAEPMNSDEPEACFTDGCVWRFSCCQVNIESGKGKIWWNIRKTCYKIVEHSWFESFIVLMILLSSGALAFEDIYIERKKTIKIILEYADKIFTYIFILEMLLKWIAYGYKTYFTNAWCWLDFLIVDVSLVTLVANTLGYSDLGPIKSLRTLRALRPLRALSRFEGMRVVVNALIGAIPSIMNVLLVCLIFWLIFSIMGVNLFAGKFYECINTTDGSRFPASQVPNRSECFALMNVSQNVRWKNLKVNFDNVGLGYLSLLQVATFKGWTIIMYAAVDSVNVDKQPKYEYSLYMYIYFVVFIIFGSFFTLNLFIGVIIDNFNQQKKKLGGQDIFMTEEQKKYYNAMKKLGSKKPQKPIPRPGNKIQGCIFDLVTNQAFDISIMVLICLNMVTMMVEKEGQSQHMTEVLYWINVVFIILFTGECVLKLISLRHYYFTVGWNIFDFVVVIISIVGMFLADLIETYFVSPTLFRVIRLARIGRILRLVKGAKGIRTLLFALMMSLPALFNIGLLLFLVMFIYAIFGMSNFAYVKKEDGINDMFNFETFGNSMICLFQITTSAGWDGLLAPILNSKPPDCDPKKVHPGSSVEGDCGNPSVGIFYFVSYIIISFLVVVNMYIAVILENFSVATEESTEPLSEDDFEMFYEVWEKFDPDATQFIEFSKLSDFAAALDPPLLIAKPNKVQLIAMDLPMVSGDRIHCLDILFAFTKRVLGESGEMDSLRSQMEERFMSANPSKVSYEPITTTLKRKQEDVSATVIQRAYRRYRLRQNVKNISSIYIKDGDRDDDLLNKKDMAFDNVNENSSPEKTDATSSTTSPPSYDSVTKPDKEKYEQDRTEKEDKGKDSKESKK

| IC50 (average IC50, human Nav1.7) [µM] | Structure (SMILES) | further results |
| --- | --- | --- |
| 9.87 | CNC(=O)c1cccc(Nc2ncnc(N3CCc4cc(OCCOC)ccc4C3)n2)c1 [Example 233] |  |
| 12.7 | CCCc1noc(C2CCN(c3ncnc(Nc4cccc(C(=O)NC)c4)n3)CC2)n1 [Example 246] |  |
| 10.4 | CNC(=O)c1cccc(Nc2ncnc(NCCOc3ccc(Cl)cc3)n2)c1 [Example 236] |  |
| 15 | CNC(=O)c1cccc(Nc2ncnc(N3CCc4c(cccc4OCCOC)C3)n2)c1 [Example 252] |  |
| 17.8 | CNC(=O)c1cc(Cl)cc(Nc2ncnc(N3CC(Oc4ccc(F)cc4)C3)n2)c1 [Example 262] |  |
| 9.35 | CNC(=O)c1cccc(Nc2ncnc(N3CC(Oc4ccc(F)c(F)c4F)C3)n2)c1 [Example 226] |  |
| 9.44 | CNC(=O)c1cccc(Nc2ncnc(N3CC(COc4ccccc4OC(F)(F)F)C3)n2)c1 [Example 229] |  |

Further lines, the compound ahead of its results:

| Structure (SMILES) | IC50 (average IC50, human Nav1.7) [µM] | further results |
| --- | --- | --- |
| CNC(=O)c1cccc(Nc2ncnc(N3CCc4cc(F)ccc4C3)n2)c1 [Example 176] | 4.67 |  |
| CNC(=O)c1cccc(Nc2ccnc(NCCCOc3ccc(OC(F)(F)F)cc3)n2)c1 [Example AC, N-methyl-3-((2-((3-(4-(trifluoromethoxy)phenoxy)propyl)amino)-4-pyrimidinyl)amino)benzamide] |  | IC50 [1]: 1.17 µM |
| CNC(=O)c1cccc(Nc2ncnc(N3CCC(c4ccc(C#N)c(C(F)(F)F)c4)CC3)n2)c1 [Example 215] | 8.59 |  |
| CNC(=O)c1cccc(Nc2ncnc(N3CCN(c4ccc(Cl)cc4)CC3)n2)c1 [Example 157] | 3.36 |  |
| CNC(=O)c1cccc(Nc2ncnc(N3CC(OCc4ccc(Cl)cc4)C3)n2)c1 [Example 113] | 1.82 |  |
| Cc1c(Nc2ncnc(N3CCC(OCc4ccc(OC(F)(F)F)cc4)CC3)n2)cccc1C(N)=O [Example 267] |  | IC50 (average IC50): 20.9 µM |
| CNC(=O)c1cc(Nc2cccc(N3CC(Oc4ccc(Cl)cc4F)C3)n2)ccc1F [Example X, 5-((6-(3-(4-chloro-2-fluorophenoxy)-1-azetidinyl)-2-pyridinyl)amino)-2-fluoro-N-methylbenzamide] |  | IC50 [1]: 4.46 µM |
| O=C(NCC(F)(F)F)c1cccc(Nc2ncnc(N3CC(Oc4ccc(F)cc4)C3)n2)c1 [Example 174] | 4.62 |  |
| CNC(=O)c1cccc(Nc2ncnc(N3CC(Oc4ccc(Cl)cc4Cl)C3)n2)c1 [Example 51] | 0.65 |  |
| CNC(=O)c1cccc(Nc2nc(C)nc(N3CC(Oc4ccc(Cl)cc4F)C3)n2)c1 [Example U, 3-(4-(3-(4-chloro-2-fluorophenoxy)azetidin-1-yl)-6-methyl-1,3,5-triazin-2-ylamino)-N-methylbenzamide] |  | IC50 [1]: > 30 µM |
| CNC(=O)c1cccc(Nc2ncnc(N3CCC(C(=O)c4ccccc4)CC3)n2)c1 [Example 88] | 1.24 |  |
| CNC(=O)c1cccc(Nc2ncnc(N3CCC(Cc4ccc(F)c(F)c4)CC3)n2)c1 [Example 151] | 3.1 |  |
| CNC(=O)c1cc(Nc2ncnc(N3CC(COc4ccc(C(F)(F)F)cc4)C3)n2)ccc1Cl [Example 96] | 1.39 |  |
| CNC(=O)c1cccc(Nc2ncnc(N3CC(Oc4cc(C)ccc4Cl)C3)n2)c1 [Example 66] | 0.84 |  |
| CNC(=O)c1cccc(Nc2ncnc(N3CC(Oc4cccc(-c5ccccc5)c4)C3)n2)c1 [Example 199] | 7.02 |  |
| CNC(=O)c1cccc(Nc2ncnc(N3CC(Oc4ccccc4OC)C3)n2)c1 [Example 204] | 7.42 |  |
| CNC(=O)c1ccc(OC)c(Nc2ncnc(N3CC(Oc4ccc(Cl)cc4)C3)n2)c1 [Example 283] |  | IC50 (average IC50): > 30 µM |
| CNC(=O)c1cccc(Nc2ncnc(N3CC=C(c4csc(-c5ccccc5)n4)CC3)n2)c1 [Example 46] | 0.63 |  |
| CNC(=O)c1cccc(Nc2ncnc(N3CC(Oc4ccc(Cl)cc4F)C3)c2F)c1 [Example AB, 3-((6-(3-(4-chloro-2-fluorophenoxy)-1-azetidinyl)-5-fluoro-4-pyrimidinyl)-amino)-N-methylbenzamide] |  | IC50 [1]: > 30 µM |

| Structure (SMILES) | IC50 (average IC50, human Nav1.7) [µM] | further results |
| --- | --- | --- |
| CNC(=O)c1cc(Nc2ncnc(N3CC(Oc4ccc(Cl)cc4F)C3)n2)ccc1Cl [Example 79] | 1 |  |
| CNC(=O)c1cc(F)cc(Nc2ncnc(N3CCN(c4cccc(C)n4)CC3)n2)c1 [Example 116] | 2 |  |
| CCNC(=O)c1cccc(Nc2ncnc(N3CC(Oc4ccc(F)cc4)C3)n2)c1 [Example 102] | 1.51 |  |
| CNC(=O)c1cccc(Nc2ccnc(N3CC(Oc4ccc(Cl)cc4F)C3)n2)c1 [Example AJ, 3-((2-(3-(4-chloro-2-fluorophenoxy)-1-azetidinyl)-4-pyrimidinyl)amino)-N-methylbenzamide] |  | IC50 [1]: 2.26 µM |
| CNC(=O)c1cccc(Nc2ncnc(N3CCN(c4cccc(OC(F)(F)F)c4)CC3)n2)c1 [Example 23] | 0.35 |  |
| CNC(=O)c1cccc(Nc2ncnc(N3CCC(OCc4ccccc4)CC3)n2)c1 [Example 206] | 7.93 |  |
| CNC(=O)c1cccc(Nc2ncnc(NCCc3nnc(-c4ccc(C)s4)o3)n2)c1 [Example 287] |  | IC50 (average IC50): > 30 µM |
| CNC(=O)c1cccc(Nc2nccc(N3CC(Oc4ccc(C)cc4)C3)n2)c1 [Example B, N-methyl-3-((4-(3-(4-methylphenoxy)-1-azetidinyl)-2-pyrimidinyl)amino)benzamide] |  | IC50 [1]: 2 µM |
| CNC(=O)c1cccc(Nc2ncnc(N3CCc4ccc(OC)cc4C3)n2)c1 [Example 220] | 8.85 |  |
| CNC(=O)c1cccc(Nc2ncnc(N3CCCN(c4ncc(C(F)(F)F)cc4Cl)CC3)n2)c1 [Example 107] | 1.61 |  |
| CNC(=O)c1cccc(Nc2ncnc(N3CCc4oc(-c5ccccc5)cc4C3)n2)c1 [Example 265] |  | IC50 (average IC50): 19.2 µM |
| CNC(=O)c1cccc(Nc2ncnc(N3CCN(c4ccc(C)c(C)c4)CC3)n2)c1 [Example 53] | 0.69 |  |
| CNC(=O)c1cc(Nc2ncnc(N3CC(Oc4ccc(Cl)cc4)C3)n2)ccc1Cl [Example 162] | 3.69 |  |
| CNC(=O)c1cccc(Nc2ncnc(N3CCN(c4ccc(C#N)cc4)CC3)n2)c1 [Example 195] | 6.03 |  |
| CNC(=O)c1cccc(Nc2ncnc(N3CCC(CCCc4ccccc4)CC3)n2)c1 [Example 294] |  | IC50 (average IC50): > 30 µM |
| CNC(=O)c1cccc(Nc2ncnc(N3CC(Oc4ccc(C(F)(F)F)cc4Cl)C3)n2)c1 [Example 194] | 5.97 |  |
| CNC(=O)c1cccc(Nc2ncnc(N3CC(Oc4ccc(SC(F)(F)F)cc4)C3)n2)c1 [Example 83] | 1.06 |  |
| CNC(=O)c1cccc(Nc2ncnc(N3CC(Oc4ccc(CC#N)cc4)C3)n2)c1 [Example 207] | 7.98 |  |
| CNC(=O)c1cc(Nc2ncnc(NCCCOc3ccc(OC(F)(F)F)cc3)n2)ccc1Cl [Example 75] | 0.96 |  |

| Structure (SMILES) | IC50 (average IC50, human Nav1.7) [µM] | further results |
| --- | --- | --- |
| CNC(=O)c1cccc(Nc2ncnc(N3CCC(Oc4ccccc4OC(F)(F)F)CC3)n2)c1 [Example 209] | 8.15 |  |
| CNC(=O)c1cccc(Nc2ncnc(N3CCN(c4cccc(C)n4)CC3)n2)c1 [Example 76] | 0.97 |  |
| CNC(=O)c1cccc(Nc2ncnc(N3CC(COc4ccc(Cl)c(F)c4)C3)n2)c1 [Example 91] | 1.29 |  |
| CNC(=O)c1cccc(Nc2ncnc(N3CC(Oc4cc(Cl)cc(Cl)c4)C3)n2)c1 [Example 224] | 9.29 |  |
| CCNC(=O)c1cccc(Nc2ncnc(N3CC(Oc4ccc(Cl)cc4F)C3)n2)c1 [Example R, 3-(4-(3-(4-chloro-2-fluorophenoxy)azetidin-1-yl)-1,3,5-triazin-2-ylamino)-N-ethylbenzamide] |  | IC50 [1]: 1.14 µM |
| CNC(=O)c1cccc(Nc2ncnc(N3CCC(Oc4ccc(OC(F)(F)F)cc4)CC3)n2)c1 [Example 58] | 0.76 |  |
| CNC(=O)c1cccc(Nc2ncnc(N3CC(Oc4ccccc4)C3)n2)c1 [Example 33] | 0.45 |  |
| CC(C)(C)NC(=O)c1cccc(Nc2ncnc(N3CC(Oc4ccc(F)cc4)C3)n2)c1 [Example 213] | 8.39 |  |
| CNC(=O)c1cccc(Nc2nccc(N3CC(Oc4ccc(Cl)cc4F)C3)n2)c1 [Example M, 3-((4-(3-(4-chloro-2-fluorophenoxy)-1-azetidinyl)-2-pyrimidinyl)amino)-N-methylbenzamide] |  | IC50 [1]: 2.3 µM |
| CNC(=O)c1cccc(Nc2nccc(N3CC(Oc4ccc(F)cc4F)C3)n2)c1 [Example 125] | 2.16 |  |
| CNC(=O)c1cccc(Nc2ncnc(N3CCC3COc3ccc(Cl)cc3)n2)c1 (stereo not drawn) [Example 211] | 8.3 |  |
| CNC(=O)c1cccc(Nc2ncnc(N3CCc4cccc(C(F)(F)F)c4C3)n2)c1 [Example 269] |  | IC50 (average IC50): 21 µM |
| CNC(=O)c1cccc(Nc2ncnc(N3CCN(c4ccc(Cl)cn4)CC3)n2)c1 [Example 108] | 1.61 |  |
| CNC(=O)c1cccc(Nc2nccc(N3CCc4cc(OCC(F)(F)F)ccc4C3)n2)c1 [Example AI, N-methyl-3-((4-(6-(2,2,2-trifluoroethoxy)-3,4-dihydro-2(1H)-isoquinolinyl)-2-pyrimidinyl)amino)benzamide] |  | IC50 [1]: 1.44 µM |
| CNC(=O)c1cccc(Nc2ncnc(N3CC(Oc4ccc(C(C)(C)C)cc4)C3)n2)c1 [Example 149] | 2.99 |  |
| CNC(=O)c1cccc(Nc2nccc(N3CC(Oc4ccc(Cl)c(C)c4)C3)n2)c1 [Example L, 3-((4-(3-(4-chloro-3-methylphenoxy)-1-azetidinyl)-2-pyrimidinyl)amino)-N-methylbenzamide] |  | IC50 [1]: 0.31 µM |
| CNC(=O)c1cccc(Nc2ncnc(N3CCc4cc(C(O)C(F)(F)F)ccc4C3)n2)c1 (stereo not drawn) [Example 292] |  | IC50 (average IC50): > 30 µM |
| CNC(=O)c1cccc(Nc2ncnc(N3CCc4cc(C5CC5)ccc4C3)n2)c1 [Example 92] | 1.29 |  |
